In one experiment the target is WRN helicase (Homo sapiens (Human), UniProt Q14191). Nature of the experiment: In vitro enzymatic activity assay on WRN helicase (DNA dependent ATPase assay, ADP-Glo). In kind it is biochemical. As to conditions: geometric means of at least 2 determinations; read-out: WRN ATPase Activity (IC50). In outline:
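DNA-dependent ATPase activity was measured by ADP-Glo luminescent ADP detection after a 30-min room-temperature reaction. The reaction contained 10 nM WRN (residues N517-P1238), 0.2 nM FLAP26 and 300 µM ATP at pH 7.5 with 2 mM MgCl2. Compounds were tested as 10-point half-log series in duplicate; IC50 values are geometric means from at least two independent experiments.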
(In ADP-Glo the light output rises with the ADP produced.)

Another experiment relates to SW48 cells. Description: Proliferation assay SW48 (CellTiterGlo, 96 hours). As to conditions: Homo sapiens, SW48, read-out: Proliferation Assay SW48 (GI50). (In general: In ATP-based viability assays light output follows the ATP content of the culture.)
The subject of a further experiment is DLD1-WRN-KO cells. Nature of the experiment: Proliferation assay DLD1-WRN-KO (CellTiterGlo, 96 hours; off-target effects). To be noted: Homo sapiens, read-out: Proliferation Assay DLD1-WRN-KO (GI50).

Chain of WRN helicase (Q14191 517-1238): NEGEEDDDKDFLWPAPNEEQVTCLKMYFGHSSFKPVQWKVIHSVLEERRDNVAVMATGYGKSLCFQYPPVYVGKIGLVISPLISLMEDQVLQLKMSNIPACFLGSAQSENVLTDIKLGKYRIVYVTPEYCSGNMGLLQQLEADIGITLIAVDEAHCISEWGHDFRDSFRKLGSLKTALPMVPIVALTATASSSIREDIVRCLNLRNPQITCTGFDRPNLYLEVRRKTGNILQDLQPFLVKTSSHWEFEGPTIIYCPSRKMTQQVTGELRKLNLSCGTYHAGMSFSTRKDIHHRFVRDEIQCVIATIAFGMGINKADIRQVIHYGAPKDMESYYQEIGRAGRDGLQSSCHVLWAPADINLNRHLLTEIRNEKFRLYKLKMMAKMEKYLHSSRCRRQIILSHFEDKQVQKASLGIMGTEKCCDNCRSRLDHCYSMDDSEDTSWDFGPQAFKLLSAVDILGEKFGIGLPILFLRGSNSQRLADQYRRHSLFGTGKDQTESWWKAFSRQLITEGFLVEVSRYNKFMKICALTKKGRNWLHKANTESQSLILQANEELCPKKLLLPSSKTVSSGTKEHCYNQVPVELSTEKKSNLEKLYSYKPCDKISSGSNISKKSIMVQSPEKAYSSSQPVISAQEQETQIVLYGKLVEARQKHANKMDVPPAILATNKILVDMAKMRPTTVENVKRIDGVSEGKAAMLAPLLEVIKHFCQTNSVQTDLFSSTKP
Protocol for SW48 cells: The WRN-knockdown insensitive colon carcinoma cell line DLD-1 (RRID: CVCL_0248) was obtained from the Korean Cell Line Bank (KCLB), and used to generate a derivative in which the endogenous WRN gene copies were knocked out by CRISPR-mediated editing using standard CRISPR methods. The resulting cell line, DLD1-WRN—KO, was used to assess potential off-target compound effects.
All cells were maintained at 37° C. in a humidified 5% CO2 incubator.
For data analysis, the assay background signal that was determined in wells containing medium, but no cells, was subtracted from all other data points prior to further calculations. The extent of growth inhibition and potential cell kill was assessed by comparing the ATP levels (measured using CellTiterGlo, Promega) in compound-treated cells with those present at the time of compound addition. […] 100%, 0% and −100% signify absence of growth inhibition, growth stasis, and complete cell kill, respectively. Compound concentrations leading to half-maximal growth inhibition (G150) and residual cell viability at the highest tested compound concentration (Data (cmax), expressed in percent) were routinely calculated. Data analysis can also be carried out using commercially available software designed to derive IC50 values using 4-parameter fits (e.g. GraphPad Prism, XL fit). The reported GI50 values are the geometrical means of at least 2 independent replicates.

As usually defined, the IC50 is the midpoint of a concentration-inhibition curve. For the compound `CCc1c(N2CCN(C(=O)c3ncnc(C)c3O)CC2)c(=O)n2nc(C3=CCOCC3)nc2n1CC(=O)Nc1cc(F)c(C(F)(F)F)cc1C` [Example 50, 2-(2-(3,6-dihydro-2H-pyran-4-yl)-5-ethyl-6-(4-(5-hydroxy-6-methylpyrimidine-4-carbonyl)piperazin-1-yl)-7-oxo-[1,2,4]triazolo[1,5-a]pyrimidin-4(7H)-yl)-N-(5-fluoro-2-methyl-4-(trifluoromethyl)phenyl)acetamide], the IC50 on WRN helicase turned out to be 30 nM. Also, the GI50 with SW48 cells is 50 nM; in the experiment with DLD1-WRN-KO cells it was over 10000 nM.

Regarding `CCc1c(N2CCN(C(=O)c3ncnc(C)c3O)CC2)c(=O)n2nc(C3=CCOCC3)nc2n1CC(=O)Nc1ccc(S(F)(F)(F)(F)F)cc1Cl` [Example 51, N-(2-chloro-4-(pentafluorosulfanyl)phenyl)-2-(2-(3,6-dihydro-2H-pyran-4-yl)-5-ethyl-6-(4-(5-hydroxy-6-methylpyrimidine-4-carbonyl)piperazin-1-yl)-7-oxo-[1,2,4]triazolo[1,5-a]pyrimidin-4(7H)-yl)acetamide], at WRN helicase, the IC50 turned out to be 40 nM. In addition, the GI50 in the experiment with SW48 cells was 30 nM; in the experiment on DLD1-WRN-KO cells, over 10000 nM.

In the case of `CCc1c(N2CCN(C(=O)c3ncncc3O)CC2)c(=O)n2nc(C3=CCOCC3)nc2n1CC(=O)Nc1ccc(S(F)(F)(F)(F)F)cc1Cl` [Example 52, N-(2-chloro-4-(pentafluorosulfanyl)phenyl)-2-(2-(3,6-dihydro-2H-pyran-4-yl)-5-ethyl-6-(4-(5-hydroxypyrimidine-4-carbonyl)piperazin-1-yl)-7-oxo-[1,2,4]triazolo[1,5-a]pyrimidin-4(7H)-yl)acetamide], the IC50 on WRN helicase came out at 40 nM. Further, the GI50 in the experiment with SW48 cells is 40 nM; with DLD1-WRN-KO cells it was over 10000 nM.

Take `CCc1c(N2CCN(C(=O)c3ncnc(C)c3O)CC2)c(=O)n2nc(C3=CCOCC3)nc2n1CC(=O)Nc1cc(F)c(C(F)F)cc1C` [Example 53, N-(4-(difluoromethyl)-5-fluoro-2-methylphenyl)-2-(2-(3,6-dihydro-2H-pyran-4-yl)-5-ethyl-6-(4-(5-hydroxy-6-methylpyrimidine-4-carbonyl)piperazin-1-yl)-7-oxo-[1,2,4]triazolo[1,5-a]pyrimidin-4(7H)-yl)acetamide]: the IC50 at WRN helicase stood at 120 nM. Besides, the GI50 in the experiment with SW48 cells was 140 nM; in the experiment with DLD1-WRN-KO cells it was over 10000 nM.

In the case of `CCc1c(N2CCN(C(=O)c3ncnc(C)c3O)CC2)c(=O)n2nc(C3=CCOCC3)nc2n1CC(=O)Nc1cc(F)c(C=O)cc1C` [Example 54, 2-(2-(3,6-dihydro-2H-pyran-4-yl)-5-ethyl-6-(4-(5-hydroxy-6-methylpyrimidine-4-carbonyl)piperazin-1-yl)-7-oxo-[1,2,4]triazolo[1,5-a]pyrimidin-4(7H)-yl)-N-(5-fluoro-4-formyl-2-methylphenyl)acetamide], the IC50 on WRN helicase is 1300 nM. Moreover, the GI50 is 6010 nM with SW48 cells and over 10000 nM in the experiment on DLD1-WRN-KO cells.

Turning to `CCc1c(N2CCN(C(=O)c3ncccc3O)CC2)c(=O)n2nc(C3=CCCCO3)nc2n1CC(=O)Nc1ccc(C(F)(F)F)nc1C` [Example 55, 2-(2-(3,4-dihydro-2H-pyran-6-yl)-5-ethyl-6-(4-(3-hydroxypicolinoyl)piperazin-1-yl)-7-oxo-[1,2,4]triazolo[1,5-a]pyrimidin-4(7H)-yl)-N-(2-methyl-6-(trifluoromethyl)pyridin-3-yl)acetamide], the IC50 at WRN helicase came out at 200 nM. Besides, the GI50 in the experiment on SW48 cells was 100 nM; with DLD1-WRN-KO cells, over 10000 nM.

Turning to `CCc1c(N2CCN(C(=O)c3nccc(Cl)c3O)CC2)c(=O)n2nc(C3=CCCCO3)nc2n1CC(=O)Nc1ccc(C(F)(F)F)nc1C` [Example 56, 2-(6-(4-(4-chloro-3-hydroxypicolinoyl)piperazin-1-yl)-2-(3,4-dihydro-2H-pyran-6-yl)-5-ethyl-7-oxo-[1,2,4]triazolo[1,5-a]pyrimidin-4(7H)-yl)-N-(2-methyl-6-(trifluoromethyl)pyridin-3-yl)acetamide], on WRN helicase, the IC50 was 160 nM. The GI50 with SW48 cells is 250 nM; in the experiment with DLD1-WRN-KO cells, over 10000 nM.

As for `CCc1c(N2CCN(C(=O)c3ncnc(C)c3O)CC2)c(=O)n2nc(C3=CCOCC3)nc2n1CC(=O)Nc1ccc(C(F)(F)F)cc1C` [Example 57, 2-(2-(3,6-dihydro-2H-pyran-4-yl)-5-ethyl-6-(4-(5-hydroxy-6-methylpyrimidine-4-carbonyl)piperazin-1-yl)-7-oxo-[1,2,4]triazolo[1,5-a]pyrimidin-4(7H)-yl)-N-(2-methyl-4-(trifluoromethyl)phenyl)acetamide], the IC50 on WRN helicase came out at 100 nM. For the same compound, the GI50 is 100 nM in the experiment with SW48 cells and over 10000 nM with DLD1-WRN-KO cells.

With `CCc1c(N2CCN(C(=O)c3ncccc3O)CC2)c(=O)n2nc(C3=CC(=O)OCC3)nc2n1CC(=O)Nc1ccc(C(F)(F)F)cc1C` [Example 60, 2-(5-ethyl-6-(4-(3-hydroxypicolinoyl)piperazin-1-yl)-7-oxo-2-(6-oxo-3,6-dihydro-2H-pyran-4-yl)-[1,2,4]triazolo[1,5-a]pyrimidin-4(7H)-yl)-N-(2-methyl-4-(trifluoromethyl)phenyl)acetamide], the IC50 on WRN helicase is 240 nM. Also, the figures for the GI50 in the experiment on SW48 cells and in the experiment with DLD1-WRN-KO cells were 880 nM and over 10000 nM, respectively.

For `CCc1c(N2CCN(C(=O)c3nccc(Cl)c3O)CC2)c(=O)n2nc(C3=CCOCC3)nc2n1CC(=O)Nc1ccc(C(F)(F)F)cc1C` [Example 61, 2-(6-(4-(4-chloro-3-hydroxypicolinoyl)piperazin-1-yl)-2-(3,6-dihydro-2H-pyran-4-yl)-5-ethyl-7-oxo-[1,2,4]triazolo[1,5-a]pyrimidin-4(7H)-yl)-N-(2-methyl-4-(trifluoromethyl)phenyl)acetamide], at WRN helicase, the IC50 is 50 nM. Besides, the GI50 in the experiment on SW48 cells was 50 nM; with DLD1-WRN-KO cells, over 10000 nM.

Turning to `CCc1c(N2CCN(C(=O)c3nc(C)cc(F)c3O)CC2)c(=O)n2nc(C3=CCOCC3)nc2n1CC(=O)Nc1ccc(C(F)(F)F)cc1C` [Example 62, 2-(2-(3,6-dihydro-2H-pyran-4-yl)-5-ethyl-6-(4-(4-fluoro-3-hydroxy-6-methylpicolinoyl)piperazin-1-yl)-7-oxo-[1,2,4]triazolo[1,5-a]pyrimidin-4(7H)-yl)-N-(2-methyl-4-(trifluoromethyl)phenyl)acetamide], at WRN helicase, the IC50 is 50 nM. The GI50 in the experiment with SW48 cells is 50 nM; in the experiment with DLD1-WRN-KO cells, over 10000 nM.

Turning to `CCc1c(N2CCN(C(=O)c3nccc(F)c3O)CC2)c(=O)n2nc(C3=CCOCC3)nc2n1CC(=O)Nc1ccc(C(F)(F)F)cc1C` [Example 63, 2-(2-(3,6-dihydro-2H-pyran-4-yl)-5-ethyl-6-(4-(4-fluoro-3-hydroxypicolinoyl)piperazin-1-yl)-7-oxo-[1,2,4]triazolo[1,5-a]pyrimidin-4(7H)-yl)-N-(2-methyl-4-(trifluoromethyl)phenyl)acetamide], the IC50 at WRN helicase amounted to 110 nM. Besides, the figures for the GI50 in the experiment on SW48 cells and in the experiment on DLD1-WRN-KO cells were 50 nM and over 10000 nM, respectively.

Turning to `CCc1c(N2CCN(C(=O)c3ncncc3O)CC2)c(=O)n2nc(C3=CCOCC3)nc2n1CC(=O)Nc1ccc(C(F)(F)F)cc1C` [Example 64, 2-(2-(3,6-dihydro-2H-pyran-4-yl)-5-ethyl-6-(4-(5-hydroxypyrimidine-4-carbonyl)piperazin-1-yl)-7-oxo-[1,2,4]triazolo[1,5-a]pyrimidin-4(7H)-yl)-N-(2-methyl-4-(trifluoromethyl)phenyl)acetamide], the IC50 at WRN helicase was 90 nM. Further, the figures for the GI50 in the experiment on SW48 cells and in the experiment on DLD1-WRN-KO cells were 480 nM and over 10000 nM, respectively.

(Values after patent publication US11878973B2, “Bicyclic compounds and their uses” (NOVARTIS AG, priority 2021, dated 2024).)
